Measurements from patent publication US6486156B1, “Chemical compounds” (Astrazeneca AB, priority 1998, dated 2002).

Biological target: T1, Farnesyl protein transferase (FPT) (Homo sapiens, UniProt P49354+P49356)
T1 construct: partially purified from human placenta by ammonium sulphate fractionation; from tissue; host or cells: human placenta
Assay: In-vitro assay (test (i)): inhibition of farnesylation of Ki-ras with radiolabelled farnesyl pyrophosphate
Type: biochemical
Settings: FPT partially purified from human placenta; substrate Kras (CVIM C-terminal sequence)
Protocol: The following stock solutions were used and the assays were conducted in 96 well plates: TRIS Buffer (500 mM TRIS, 5 mM MgCl2.6H2O, pH=8.0); Farnesyl pyrophosphate (6.4 mg/ml); Aprotinin (1.9 mg/ml); Ki-ras (0.5 mg/ml, stored at −80° C.); Acid ethanol (850 ml absolute ethanol+150 ml concentrated HCl).
Farnesyl protein transferase (FPT) was partially purified from human placenta by ammonium sulphate fractionation followed by a single Q-Sepharose™ (Pharmacia, Inc) anion exchange chromatography essentially as described by Ray and Lopez-Belmonte (Ray K P and Lopez-Belmonte J (1992) Biochemical Society Transactions 20 494-497). The substrate for FPT was Kras (CVIM C-terminal sequence). The cDNA for oncogenic val 12 variant of human c-Ki-ras-2 4B was obtained from the plasmid pSW11-1 (ATCC). This was then subcloned into the polylinker of a suitable expression vector e.g. pIC147. The Kras was obtained after expression in the E. coli strain, BL21. […]
Assays were performed in 96 well plates as follows: 10 μl of test compound solution was added to each well. […] Precipitated protein was then collected onto glass fibre filter mats (B) using a Tomtec™ cell harvester and tritiated label was measured in a Wallac™ 1204 Betaplate scintillation counter. […]

CSCC[C@H](NC(=O)c1ccc(/C=C/Cn2ccnc2)cc1-c1ccc(Cl)cc1Cl)C(=O)O [Example 29, (2S)-2-{4-[(E)-3-(Imidazol-1-yl)prop-1-en-1-yl]-2-(2,4-dichlorophenyl)benzamido}-4-methylsulfanylbutyric Acid]
IC50: ~400 pM
